The source of these data is patent US11078197B2, “5-membered and bicyclic heterocyclic amides as inhibitors of rock” (BRISTOL-MYERS SQUIBB COMPANY, priority 2017, dated 2021).

Each structure is given as a SMILES string. Read-outs that look alike come from different tables or passages of the source.

The target in one experiment is ROCK2 (Homo sapiens (Human), UniProt O75116). As to the kind of experiment: ROCK2 assay (peptide phosphorylation, LABCHIP 3000 Reader). It counts as biochemical. Particulars: 5 μM ATP, 1.5 μM peptide substrate, dose-response. Here is the method:
After incubation, the reaction was terminated by the addition of EDTA and the phosphorylated and non-phosphorylated peptides separated using a LABCHIP®3000 Reader (Caliper Life Sciences). […] Compounds were tested in dose-response format, and the inhibition of kinase activity was calculated at each concentration of compound. […] Representative Examples were tested in the ROCK2 assay described above and found having ROCK2 inhibitory activity.

The subject of experiment [1] is spontaneously hypertensive rat, renal hypertensive rat and deoxycortisone acetate salt hypertensive rat models. Particulars: cited from earlier work.
Experiment [2] relates to neointimal formation in rats. The conditions noted are these: cited from earlier work.
The test system of another experiment is Dahl salt-sensitive rats. The conditions noted are these: congestive heart failure; cited from earlier work.
Experiment [3] has as its system porcine model of IL-1 beta-induced coronary stenosis. The conditions noted are these: long term treatment; cited from earlier work.
The test system of another experiment is rat stroke model. The conditions noted are these: cited from earlier work.

ROCK2, sequence (O75116 whole entry, species assumed): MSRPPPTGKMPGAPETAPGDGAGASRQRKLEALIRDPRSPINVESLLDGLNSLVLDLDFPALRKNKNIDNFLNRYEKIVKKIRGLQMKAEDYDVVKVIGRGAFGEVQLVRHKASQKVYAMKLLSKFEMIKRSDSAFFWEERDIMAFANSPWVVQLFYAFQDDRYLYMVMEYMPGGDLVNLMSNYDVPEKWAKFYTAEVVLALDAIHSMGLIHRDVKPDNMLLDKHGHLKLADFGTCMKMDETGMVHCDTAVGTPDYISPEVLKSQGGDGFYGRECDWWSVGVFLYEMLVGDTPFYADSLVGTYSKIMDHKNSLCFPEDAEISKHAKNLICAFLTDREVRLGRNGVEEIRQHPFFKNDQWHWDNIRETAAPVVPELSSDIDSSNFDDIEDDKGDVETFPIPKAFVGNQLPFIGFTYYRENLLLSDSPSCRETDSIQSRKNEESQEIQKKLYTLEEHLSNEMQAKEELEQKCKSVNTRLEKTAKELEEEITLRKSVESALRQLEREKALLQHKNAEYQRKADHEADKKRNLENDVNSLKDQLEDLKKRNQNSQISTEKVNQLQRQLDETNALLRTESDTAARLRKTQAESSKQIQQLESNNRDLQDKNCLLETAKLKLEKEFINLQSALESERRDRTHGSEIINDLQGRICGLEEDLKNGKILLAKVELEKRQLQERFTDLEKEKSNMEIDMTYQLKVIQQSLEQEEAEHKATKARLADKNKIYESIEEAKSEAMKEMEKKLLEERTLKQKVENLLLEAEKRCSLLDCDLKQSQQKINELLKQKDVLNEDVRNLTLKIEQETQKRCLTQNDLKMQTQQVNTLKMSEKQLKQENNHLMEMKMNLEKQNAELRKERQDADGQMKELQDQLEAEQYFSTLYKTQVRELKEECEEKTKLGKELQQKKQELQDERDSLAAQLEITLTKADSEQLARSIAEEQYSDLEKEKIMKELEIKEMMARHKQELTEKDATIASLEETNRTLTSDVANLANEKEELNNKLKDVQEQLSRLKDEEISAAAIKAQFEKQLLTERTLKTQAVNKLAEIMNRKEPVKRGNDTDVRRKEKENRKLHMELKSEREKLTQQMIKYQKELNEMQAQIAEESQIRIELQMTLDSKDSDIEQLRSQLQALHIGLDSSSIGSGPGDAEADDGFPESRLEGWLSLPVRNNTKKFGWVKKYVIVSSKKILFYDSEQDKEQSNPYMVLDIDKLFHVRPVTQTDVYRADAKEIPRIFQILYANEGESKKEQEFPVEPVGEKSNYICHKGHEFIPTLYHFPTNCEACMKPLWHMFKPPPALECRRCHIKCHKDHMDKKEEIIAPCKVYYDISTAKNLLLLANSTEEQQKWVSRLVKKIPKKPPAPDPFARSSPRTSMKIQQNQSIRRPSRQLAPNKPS

As usually defined, the IC50 is the concentration that inhibits the measured activity by half. Low values mean higher potency, high ones lower potency. `Cn1ncc2cc(C(N)=O)c(O[C@H]3C[C@@]4(C[C@H](NC(=O)c5cnn6c(C7CC7)c(OCC(C)(C)O)ccc56)C4)C3)nc21` (some centres unmarked) [Example 147, 7-cyclopropyl-6-(2-hydroxy-2-methylpropoxy)-N-[(4s)-6-({5-carbamoyl-1-methyl-1H-pyrazolo[3,4-b]pyridin-6-yl}oxy)spiro[3.3]heptan-2-yl]pyrazolo[1,5-a]pyridine-3-carboxamide] returned an IC50 against ROCK2 of 2.9 nM.
Same read-out and setting: in the case of `Cn1ncc2cc(C(N)=O)c(O[C@H]3C[C@@]4(C[C@H](NC(=O)c5cccc(CO)n5)C4)C3)nc21` (some centres unmarked) [Example 148, 6-(hydroxymethyl)-N-[(4s)-6-({5-carbamoyl-1-methyl-1H-pyrazolo[3,4-b]pyridin-6-yl}oxy)spiro[3.3]heptan-2-yl]pyridine-2-carboxamide] it was 52.7 nM.
On the same count and under the same terms, in the case of `Cn1ncc2cc(C(N)=O)c(O[C@H]3C[C@@]4(C[C@H](NC(=O)c5nnc(-c6ccc(C(F)(F)F)cc6)s5)C4)C3)nc21` (some centres unmarked) [Example 149, N-[(4s)-6-({5-carbamoyl-1-methyl-1H-pyrazolo[3,4-b]pyridin-6-yl}oxy)spiro[3.3]heptan-2-yl]-5-[4-(trifluoromethyl)phenyl]-1,3,4-thiadiazole-2-carboxamide] it was 14.5 nM; in that of `Cc1c(C(=O)N[C@H]2C[C@]3(C2)C[C@H](Oc2nc4c(cnn4C)cc2C(N)=O)C3)cnn1-c1ccc(S(C)(=O)=O)cc1` (some centres unmarked) [Example 150, 1-(4-methanesulfonylphenyl)-5-methyl-N-[(4s)-6-({5-carbamoyl-1-methyl-1H-pyrazolo[3,4-b]pyridin-6-yl}oxy)spiro[3.3]heptan-2-yl]-1H-pyrazole-4-carboxamide], 7.1 nM; in that of `Cn1ncc2cc(C(N)=O)c(O[C@H]3C[C@@]4(C[C@H](NC(=O)c5nnc(-c6ccc(F)cc6F)s5)C4)C3)nc21` (some centres unmarked) [Example 151, 5-(2,4-difluorophenyl)-N-[(4s)-6-({5-carbamoyl-1-methyl-1H-pyrazolo[3,4-b]pyridin-6-yl}oxy)spiro[3.3]heptan-2-yl]-1,3,4-thiadiazole-2-carboxamide], 13.6 nM.
Take `Cc1c(C(=O)N[C@H]2C[C@]3(C2)C[C@H](Oc2nc4c(cnn4C)cc2C(N)=O)C3)cnn1-c1ccc(C#N)cc1` (some centres unmarked) [Example 152, 1-(4-cyanophenyl)-5-methyl-N-[(4s)-6-({5-carbamoyl-1-methyl-1H-pyrazolo[3,4-b]pyridin-6-yl}oxy)spiro[3.3]heptan-2-yl]-1H-pyrazole-4-carboxamide]: the concentration for half-maximal inhibition (IC50) against ROCK2 stood at 6.3 nM.
In the case of `Cc1c(C(=O)N[C@H]2C[C@]3(C2)C[C@H](Oc2nc4c(cnn4C)cc2C(N)=O)C3)cnn1-c1ccc(-c2cnn(C)c2)cc1` (some centres unmarked) [Example 153, 5-methyl-1-[4-(1-methyl-1H-pyrazol-4-yl)phenyl]-N-[(4s)-6-({5-carbamoyl-1-methyl-1H-pyrazolo[3,4-b]pyridin-6-yl}oxy)spiro[3.3]heptan-2-yl]-1H-pyrazole-4-carboxamide], at ROCK2, the IC50 was 0.8 nM.
`Cn1ncc2cc(C(N)=O)c(O[C@H]3C[C@@]4(C[C@H](NC(=O)c5cc(-c6ccc(S(C)(=O)=O)cc6)n(C(F)F)n5)C4)C3)nc21` (some centres unmarked) [Example 154, 1-(difluoromethyl)-5-(4-methanesulfonylphenyl)-N-[(4s)-6-({5-carbamoyl-1-methyl-1H-pyrazolo[3,4-b]pyridin-6-yl}oxy)spiro[3.3]heptan-2-yl]-1H-pyrazole-3-carboxamide] yielded a concentration for half-maximal inhibition (IC50) against ROCK2 of 2.3 nM.
For the compound `Cn1ncc2cc(C(N)=O)c(O[C@H]3C[C@@]4(C[C@H](NC(=O)c5cc(-c6ccc(C#N)cc6)n(C(F)F)n5)C4)C3)nc21` (some centres unmarked) [Example 155, 5-(4-cyanophenyl)-1-(difluoromethyl)-N-[(4s)-6-({5-carbamoyl-1-methyl-1H-pyrazolo[3,4-b]pyridin-6-yl}oxy)spiro[3.3]heptan-2-yl]-1H-pyrazole-3-carboxamide], the IC50 on ROCK2 turned out to be 2.7 nM.
Still for that read-out and setting: the value for `Cn1ncc2cc(C(N)=O)c(O[C@H]3C[C@@]4(C[C@H](NC(=O)c5nnc(-c6cccc(S(C)(=O)=O)c6)s5)C4)C3)nc21` (some centres unmarked) [Example 156, 5-(3-methanesulfonylphenyl)-N-[(4s)-6-({5-carbamoyl-1-methyl-1H-pyrazolo[3,4-b]pyridin-6-yl}oxy)spiro[3.3]heptan-2-yl]-1,3,4-thiadiazole-2-carboxamide] was 4.3 nM; that for `Cn1ncc2cc(C(N)=O)c(O[C@H]3C[C@@]4(C[C@H](NC(=O)c5cnc6c(cnn6CC(F)F)c5)C4)C3)nc21` (some centres unmarked) [Example 157, 1-methyl-6-{[(4s)-6-[1-(2,2-difluoroethyl)-1H-pyrazolo[3,4-b]pyridine-5-amido]spiro[3.3]heptan-2-yl]oxy}-1H-pyrazolo[3,4-b]pyridine-5-carboxamide] was 10.9 nM; that for `Cc1c(C(=O)N[C@H]2C[C@]3(C2)C[C@H](Oc2nc4c(cnn4C)cc2C(N)=O)C3)cnn1-c1ccc(-c2cnn(CC(F)F)c2)cc1` (some centres unmarked) [Example 158, 1-{4-[1-(2,2-difluoroethyl)-1H-pyrazol-4-yl]phenyl}-5-methyl-N-[(4s)-6-({5-carbamoyl-1-methyl-1H-pyrazolo[3,4-b]pyridin-6-yl}oxy)spiro[3.3]heptan-2-yl]-1H-pyrazole-4-carboxamide] was 4.6 nM.
In turn, `Cn1ncc2cc(C(N)=O)c(O[C@H]3C[C@@]4(C[C@H](NC(=O)c5nn(CC(F)F)c6cc(OCC(C)(C)O)ccc56)C4)C3)nc21` (some centres unmarked) [Example 159, 1-(2,2-difluoroethyl)-6-(2-hydroxy-2-methylpropoxy)-N-[(4s)-6-({5-carbamoyl-1-methyl-1H-pyrazolo[3,4-b]pyridin-6-yl}oxy)spiro[3.3]heptan-2-yl]-1H-indazole-3-carboxamide] displayed a 50% inhibitory concentration (IC50) on ROCK2 of 1.1 nM.
Still for that read-out and setting: in the case of `Cn1ncc2cc(C(N)=O)c(O[C@H]3C[C@@]4(C[C@H](NC(=O)c5nn(CC(F)F)c6cc(OCC(C)(C)F)ccc56)C4)C3)nc21` (some centres unmarked) [Example 160, 1-(2,2-difluoroethyl)-6-(2-fluoro-2-methylpropoxy)-N-[(4s)-6-({5-carbamoyl-1-methyl-1H-pyrazolo[3,4-b]pyridin-6-yl}oxy)spiro[3.3]heptan-2-yl]-1H-indazole-3-carboxamide] it was 1.6 nM; in that of `Cc1sc2cc(C(N)=O)c(O[C@H]3C[C@@]4(C[C@H](NC(=O)c5cnn(-c6ccc(F)cc6F)c5C)C4)C3)nc2c1C` (some centres unmarked) [Example 161, 1-(2,4-difluorophenyl)-5-methyl-N-[(4s)-6-({6-carbamoyl-2,3-dimethylthieno[3,2-b]pyridin-5-yl}oxy)spiro[3.3]heptan-2-yl]-1H-pyrazole-4-carboxamide], 223 nM.
On the same count and under the same terms, the value for `Cc1sc2cc(C(N)=O)c(O[C@H]3CC4(C[C@H](NC(=O)c5nnc(NCC(C)C)s5)C4)C3)nc2c1C` (some centres unmarked) [Example 162, 5-[(2-methylpropyl)amino]-N-[(4s)-6-({6-carbamoyl-2,3-dimethylthieno[3,2-b]pyridin-5-yl}oxy)spiro[3.3]heptan-2-yl]-1,3,4-thiadiazole-2-carboxamide] was 162 nM.
Take `C[C@@H](N)[C@H]1CC[C@H](C(=O)Nc2ccncc2)CC1` [Example Y-27632, Y-27632]: the blood pressure entry is reported as “only a minor effect on blood pressure” in experiment [1] (control rats) and “significantly decrease blood pressure” in experiment [1] (three rat models of hypertension). Also, in experiment [2], the neointimal formation entry is recorded as “inhibited neointimal formation”. Further, the “ventricular hypertrophy, fibrosis and function” value in the experiment on Dahl salt-sensitive rats was “improve ventricular hypertrophy, fibrosis and function”.
For the compound `O=S(=O)(c1cccc2cnccc12)N1CCCNCC1` [fasudil], in experiment [3], the coronary constrictive remodeling entry is “promote a regression of coronary constrictive remodeling” and the coronary stenosis entry was “progressively reduce coronary stenosis”. In the experiment on rat stroke model, the “infarct size and neurologic deficit” value is “reduce both the infarct size and neurologic deficit”.
